Experimental data published in PMC11933327, “Asymmetric activation of dimeric ATM/Tel1 kinase” (Cell Discovery, 2025).

How the values were obtained:
ATM/Tel1 = assay: Endogenous activation of ATM/Tel1 in cultured yeast cells; assay type: cell-based, Schizosaccharomyces pombe; details: 0.05% MMS added at OD600 ≈ 4, cells collected 60 min later
Procedure: (§1) Purification of Yeast ATM/Tel1
(§2) S. pombe stain CC5060 (h–leu1-32 ura4- D18 kanMX6:nmt1:TAP-tel1)[1] was grown in YPD medium to the stationary phase. 0.05% MMS(MACKLIN)was added at OD600 ≈ 4 and c ells were collected 60 min later. About 100 g cells were harvested, washed, and resuspended in extraction buffer (50 mM HEPES [pH 7.6], 300 mM ammonium sulfate, 0.5 mM EDTA, 5 mM β-ME, 10% (v/v) glycerol, 0.01% (v/v) NP-40 and protease inhibitors), and a whole-cell extraction was prepared as previously described. This whole -cell extract was selectively precipitated in 30-55% ammonium sulfate and resuspended using binding buffer (50 mM HEPES [pH 7.6], 1 mM EDTA, 10 mM ZnCl2, 5 mM β- ME, and protease inhibitors). […] The ATM/Tel1 elution was flash- frozen in liquid nitrogen, and analyzed by SDS-PAGE and EM examination.
(§3) Expression and Purification of full-length CHK2, MRN (Mre11, Rad50-core, Nbs1) The codon-optimized gene fragments for human full- length CHK2, yeast Mre11, Rad50-core (lacking the coiled-coil motif) were cloned into the pET22b vector with a C-terminal 6× His tag and Nbs1 were cloned into the pET22b vector with a C-terminal 6× His tag and a GST tag, and transformed into E. coli BL21(DE3). […] The eluted CHK2 and MRN proteins were flash-frozen in liquid nitrogen and analyzed by SDS-PAGE and EM. […]

human ATM = details: ref [5] Howes, A. C., Perisic, O. & Williams, R. L. Sci. Adv. 9, eadi8291 (2023); cited from earlier work
Excerpt: Based on a radiolabeled ATP-based kinase assay, which is the “gold standard” for the quantification of protein kinase activity, we managed to achieve a 30-fold increase in ATM/Tel1 activity (Fig. 1a; Supplementary Fig. S3). This level of activati ...

basal ATM/Tel1 = target: T1, basal ATM/Tel1 (Schizosaccharomyces pombe, UniProt O74630); assay: Surface plasmon resonance, CHK2 immobilized, basal ATM/Tel1; assay type: binding; details: 20 °C, experiment independently repeated three times
T1 construct: we endogenously purified basal; TAP (N, cleaved yes); made in house; host or cells: Schizosaccharomyces pombe strain CC5060 (TAP-tel1 under the nmt1 promoter)
T1 sequence (O74630 whole entry): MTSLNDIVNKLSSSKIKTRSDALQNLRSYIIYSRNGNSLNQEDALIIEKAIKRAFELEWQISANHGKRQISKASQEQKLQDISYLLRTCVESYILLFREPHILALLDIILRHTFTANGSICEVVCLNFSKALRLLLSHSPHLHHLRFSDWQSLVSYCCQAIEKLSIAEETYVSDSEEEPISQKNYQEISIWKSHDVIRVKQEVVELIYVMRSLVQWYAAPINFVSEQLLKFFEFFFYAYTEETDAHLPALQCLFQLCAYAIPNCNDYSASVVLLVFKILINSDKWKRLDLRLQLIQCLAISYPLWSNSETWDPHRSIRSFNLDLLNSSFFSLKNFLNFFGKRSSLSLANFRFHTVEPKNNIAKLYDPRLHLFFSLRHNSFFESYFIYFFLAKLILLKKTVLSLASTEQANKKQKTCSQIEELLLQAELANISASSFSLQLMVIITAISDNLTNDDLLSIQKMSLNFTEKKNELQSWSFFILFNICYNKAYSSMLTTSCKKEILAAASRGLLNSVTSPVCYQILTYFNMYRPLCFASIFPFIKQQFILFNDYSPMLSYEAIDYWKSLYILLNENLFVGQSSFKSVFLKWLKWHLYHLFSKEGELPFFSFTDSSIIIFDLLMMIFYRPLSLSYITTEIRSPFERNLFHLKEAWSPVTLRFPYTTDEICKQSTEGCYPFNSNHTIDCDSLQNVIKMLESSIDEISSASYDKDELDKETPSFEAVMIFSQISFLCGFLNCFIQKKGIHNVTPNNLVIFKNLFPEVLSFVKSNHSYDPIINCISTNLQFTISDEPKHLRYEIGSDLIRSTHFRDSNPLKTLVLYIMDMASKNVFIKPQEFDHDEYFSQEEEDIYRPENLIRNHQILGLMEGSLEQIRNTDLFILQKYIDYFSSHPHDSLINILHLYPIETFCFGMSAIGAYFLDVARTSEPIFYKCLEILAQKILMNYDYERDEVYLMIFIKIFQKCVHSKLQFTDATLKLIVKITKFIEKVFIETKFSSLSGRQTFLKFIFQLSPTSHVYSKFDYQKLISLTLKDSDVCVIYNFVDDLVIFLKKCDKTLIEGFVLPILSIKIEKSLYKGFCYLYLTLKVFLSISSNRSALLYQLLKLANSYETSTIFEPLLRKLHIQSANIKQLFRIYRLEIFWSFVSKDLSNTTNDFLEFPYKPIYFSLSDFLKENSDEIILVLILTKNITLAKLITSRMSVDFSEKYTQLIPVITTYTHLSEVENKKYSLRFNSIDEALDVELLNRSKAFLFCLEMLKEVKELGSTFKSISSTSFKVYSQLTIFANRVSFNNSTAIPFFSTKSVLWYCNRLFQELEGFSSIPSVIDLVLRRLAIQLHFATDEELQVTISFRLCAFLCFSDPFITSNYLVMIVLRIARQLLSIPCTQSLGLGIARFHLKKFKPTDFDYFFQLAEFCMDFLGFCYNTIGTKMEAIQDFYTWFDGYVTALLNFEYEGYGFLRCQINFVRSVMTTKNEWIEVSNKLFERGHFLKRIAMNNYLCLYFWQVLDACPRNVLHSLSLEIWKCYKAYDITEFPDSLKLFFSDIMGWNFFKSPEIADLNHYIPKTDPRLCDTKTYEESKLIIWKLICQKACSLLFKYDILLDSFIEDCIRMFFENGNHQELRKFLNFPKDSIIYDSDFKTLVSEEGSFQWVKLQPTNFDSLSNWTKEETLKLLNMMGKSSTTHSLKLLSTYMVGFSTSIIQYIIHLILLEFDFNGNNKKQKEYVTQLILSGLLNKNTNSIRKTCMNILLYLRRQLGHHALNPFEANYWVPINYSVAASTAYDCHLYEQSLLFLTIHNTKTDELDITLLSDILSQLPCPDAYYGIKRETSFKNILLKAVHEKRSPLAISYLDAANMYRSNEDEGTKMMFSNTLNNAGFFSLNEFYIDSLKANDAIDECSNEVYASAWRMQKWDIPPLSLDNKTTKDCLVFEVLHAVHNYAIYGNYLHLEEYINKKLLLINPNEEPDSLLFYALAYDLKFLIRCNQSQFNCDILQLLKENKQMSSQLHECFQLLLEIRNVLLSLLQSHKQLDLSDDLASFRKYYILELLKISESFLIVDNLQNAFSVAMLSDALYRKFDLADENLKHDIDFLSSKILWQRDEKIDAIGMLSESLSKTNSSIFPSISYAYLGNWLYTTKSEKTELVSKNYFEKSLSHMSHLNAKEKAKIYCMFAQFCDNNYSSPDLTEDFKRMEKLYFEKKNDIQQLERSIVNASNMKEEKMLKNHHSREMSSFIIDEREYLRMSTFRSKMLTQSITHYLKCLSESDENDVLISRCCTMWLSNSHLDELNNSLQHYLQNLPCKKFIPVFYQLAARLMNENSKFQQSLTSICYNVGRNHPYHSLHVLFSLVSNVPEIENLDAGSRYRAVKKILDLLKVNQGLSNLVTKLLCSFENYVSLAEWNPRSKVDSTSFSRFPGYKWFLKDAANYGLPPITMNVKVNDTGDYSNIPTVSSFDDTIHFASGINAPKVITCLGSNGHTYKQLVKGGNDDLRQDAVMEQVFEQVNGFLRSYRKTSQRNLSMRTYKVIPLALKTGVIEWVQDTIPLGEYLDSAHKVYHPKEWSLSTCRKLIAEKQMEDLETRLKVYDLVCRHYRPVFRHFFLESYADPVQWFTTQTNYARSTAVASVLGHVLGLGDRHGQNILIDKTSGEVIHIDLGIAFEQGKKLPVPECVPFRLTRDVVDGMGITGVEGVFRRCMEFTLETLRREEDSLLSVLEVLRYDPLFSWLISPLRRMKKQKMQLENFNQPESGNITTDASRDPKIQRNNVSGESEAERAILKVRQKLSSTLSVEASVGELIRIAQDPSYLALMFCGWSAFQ
Procedure: as §1
as §2, with “described.” for “described. This whole -cell extract was selectively precipitated in 30-55% ammonium sulfate and resuspended using binding buffer (50 mM HEPES [pH 7.6], 1 mM EDTA, 10 mM ZnCl2, 5 mM β- ME, and protease inhibitors).”
as §3
(§4) to SDS- PAGE and analyzed by Western blot (WB) using pan- acetylated -Lysine (Rabbit monoclonal, Cat# 9441S, Cell Signaling Technology). and phospho-ATM/ATR substrate (pSQ/pTQ motif, Rabbit monoclonal, Cat# 6966, Cell Signaling Technology) antibodies. […]

active ATM/Tel1 dimer = assay: Cryo-EM structure of active ATM/Tel1 with substrate peptide; assay type: binding, Schizosaccharomyces pombe; details: cryo-EM Structure 2, 3.6 Å; active ATM/Tel1 : 329 bp DNA : CHK2 peptide 1:20:200 with AMP-PNP, on ice 1 h
Procedure: The affinity chromatography sample of ATM/Tel1 was diluted to final concentrations of 0.05 mg/ml (50 mM HEPES [pH 7.6], 0.01% (v/v) NP- 40, 1 mM EDTA, 10 mM ZnCl 2, 5 mM β- ME, and protease inhibitors). Negative staining was used to evaluate the protein quality. In brief, 3 µl of freshly purified ATM/Tel1 was applied onto copper grids supported by a thin layer of glow - discharged carbon film (Zhongjingkeyi Technology Co., Ltd). After adsorption for 30 s, uranyl acetate (2% w/v) was used for negative staining at room temperature. The negatively stained grids were examined using FEI Talos L120C operated at 120 KeV. […]
The grids were imaged in a Titan Krios cryo-electron microscope (Thermo Fisher Scientific) operated at 300 keV at a magnification of 81,000 × (corresponding to a calibrated sampling of 1.07 Å per pixel). Movies were recorded by EPU with a Gatan K3 Summit direct electron detector, where each movie was composed of 32 individual frames with an exposure time of 3.8 s and a dose rate of 50 electrons per second per Å2. […]
Beam-induced sample motions were corrected using MotionCorr2[3] software, and contrast transfer function (CTF) parameters were estimated using CTFFIND4[4] software. […] All reported resolutions were calculated from gold standard refinement procedures with the FSC = 0.143 criterion implemented in cryoSPARC[5]. […]

active ATM/Tel1 = target: T2, active ATM/Tel1 (Schizosaccharomyces pombe, UniProt O74630); assay: Surface plasmon resonance, CHK2 immobilized, active ATM/Tel1; assay type: binding; details: 20 °C, experiment independently repeated three times
T2 construct: TAP (N, cleaved yes); made in house; host or cells: Schizosaccharomyces pombe strain CC5060 (TAP-tel1 under the nmt1 promoter), treated with 0.05% MMS
T2 sequence (O74630 whole entry): as above
Procedure: as §1
as §2, with “described.” for “described. This whole -cell extract was selectively precipitated in 30-55% ammonium sulfate and resuspended using binding buffer (50 mM HEPES [pH 7.6], 1 mM EDTA, 10 mM ZnCl2, 5 mM β- ME, and protease inhibitors).”
as §3, §4

Q: For `COS(C)(=O)=O` [methylmethane sulfonate], which “activation of cellular ATM/Tel1 (in words)” value (ATM/Tel1) is on record?
A: The value was “endogenously activated the cellular ATM/Tel1”.

Q: Which “level of activation of human ATM in vitro compared with the 30-fold activation of ATM/Tel1” value (human ATM) does the source give for `OO` [H2O2] here?
A: The value was “comparable”.

Q: What does the source list for “LETVSTQELYSI [CHK2 peptide, 12-residue human CHK2 substrate peptide 63-74, custom-synthesized by Sangon, with an N-terminal NH2 and C-terminal COOH]”?
A: reduction of affinity for basal ATM/Tel1 compared to the active state (basal ATM/Tel1; SPR (Supplementary Fig. S7)): over 120 fold; binding affinity for basal ATM/Tel1 (in words) (basal ATM/Tel1; SPR (Supplementary Fig. S7b)): significantly lower affinity; monomers of the active dimer that bind the substrate peptide (active ATM/Tel1 dimer): only Mono1, but not Mono2, can bind to the CHK2 peptide; affinity for active ATM/Tel1 relative to full-length CHK2 (active ATM/Tel1; SPR (Supplementary Fig. S7)): comparable to that of the full-length CHK2; binding affinity for active ATM/Tel1 (in words) (active ATM/Tel1; SPR (Supplementary Fig. S7a)): increased affinity in the active state
